Experimental data as given in PubChem BioAssay (NCI).
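Step 1: Grow cells in 96-well plates. Step 2: Expose to compound for 48 hours at 5 concentrations. Step 3: Interpolate endpoints linearly; if unreached, use highest concentration. The concentration for 50% growth inhibition is given as GI50. At the TGI there is no net growth.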

Key:
Assay in all cases: inhibition of tumour cell growth, NCI panel, 48 h
[1] = system: KM12 colon
[2] = system: UACC-62 melanoma
[3] = system: NCI-H226 lung
[4] = system: OVCAR-4 ovarian
[5] = system: UO-31 renal
[6] = system: RXF 393 renal
[7] = system: MOLT-4 leukemia
[8] = system: MDA-MB-435
[9] = system: DU-145 prostate
[10] = system: SW-620 colon
[11] = system: HL-60(TB) leukemia
[12] = system: HCT-116 colon
[13] = system: CCRF-CEM leukemia
[14] = system: CAKI-1 renal
[15] = system: M14 melanoma
[16] = system: MDA-MB-231 breast
[17] = system: U251 CNS
[18] = system: HS 578T breast
[19] = system: UACC-257 melanoma
[20] = system: 786-0 renal
[21] = system: SK-MEL-28 melanoma
[22] = system: T-47D breast
[23] = system: NCI-H460 lung
[24] = system: SNB-19 CNS
[25] = system: OVCAR-5 ovarian
[26] = system: ACHN renal
[27] = system: SK-OV-3 ovarian
[28] = system: HT29 colon
[29] = system: NCI-H23 lung
[30] = system: NCI/ADR-RES ovarian
[31] = system: SF-539 CNS
[32] = system: OVCAR-3 ovarian
[33] = system: HCC-2998 colon
[34] = system: OVCAR-8 ovarian
[35] = system: RPMI-8226 leukemia
[36] = system: SF-268 CNS
[37] = system: MCF7 breast
[38] = system: MALME-3M melanoma
[39] = system: PC-3 prostate
[40] = system: HOP-62 NSCLC
[41] = system: EKVX NSCLC
[42] = system: COLO 205 colon
[43] = system: TK-10 renal
[44] = system: SNB-75 CNS
[45] = system: HOP-92 NSCLC
[46] = system: A549 NSCLC
[47] = system: SF-295 CNS
[48] = system: IGROV1 ovarian
[49] = system: SN12C renal
[50] = system: K-562 leukemia
[51] = system: HCT-15 colon
[52] = system: SK-MEL-5 melanoma
[53] = system: SR leukemia
[54] = system: A498 renal
[55] = system: BT-549 breast
[56] = system: LOX IMVI melanoma
[57] = system: NCI-H522 lung
[58] = system: SK-MEL-2 melanoma

`COc1cccc(/C=C2\COc3ccc(O)c(O)c3C2=O)c1` gave a GI50 [1] of 1440 nM, a TGI [1] of 3250 nM and a GI50 [2] of 1530 nM. For the same compound, the TGI [2] was 3220 nM, the GI50 [3] was 2030 nM and the TGI [3] was 5380 nM. It also gave a GI50 [4] of 2180 nM, a TGI [4] of 9470 nM and a GI50 [5] of 853 nM. The TGI [5] was 2090 nM, the GI50 [6] was 1190 nM and the TGI [6] was 2480 nM. For the same compound, the GI50 [7] was 1640 nM, the TGI [7] was 17700 nM and the GI50 [8] was 1460 nM. It also gave a TGI [8] of 4120 nM, a GI50 [9] of 1680 nM and a TGI [9] of 4160 nM. The GI50 [10] was 1160 nM, the TGI [10] was 3850 nM and the GI50 [11] was 405 nM. The TGI [11] was 3200 nM, the GI50 [12] was 1250 nM and the TGI [12] was 2900 nM. For the same compound, the GI50 [13] was 263 nM, the TGI [13] was 1110 nM and the GI50 [14] was 1280 nM. The TGI [14] was 2710 nM, the GI50 [15] was 1880 nM and the TGI [15] was 4760 nM. For the same compound, the GI50 [16] was 1690 nM, the TGI [16] was 6500 nM and the GI50 [17] was 1150 nM. For the same compound, the TGI [17] was 2490 nM, the GI50 [18] was 2900 nM and the TGI [18] was 21800 nM. For the same compound, the GI50 [19] was 1730 nM, the TGI [19] was 4770 nM and the GI50 [20] was 1470 nM. The TGI [20] was 3860 nM, the GI50 [21] was 1780 nM and the TGI [21] was 4130 nM. For the same compound, the GI50 [22] was 1580 nM, the TGI [22] was 4380 nM and the GI50 [23] was 2440 nM. For the same compound, the TGI [23] was 8190 nM, the GI50 [24] was 1840 nM and the TGI [24] was 5070 nM. The GI50 [25] was 2180 nM, the TGI [25] was 4690 nM and the GI50 [26] was 1250 nM. For the same compound, the TGI [26] was 2610 nM, the GI50 [27] was 3380 nM and the TGI [27] was 12700 nM. The GI50 [28] was 2260 nM, the TGI [28] was 5070 nM and the GI50 [29] was 1580 nM. It also gave a TGI [29] of 3340 nM, a GI50 [30] of 1640 nM and a TGI [30] of 5950 nM. It also gave a GI50 [31] of 1180 nM, a TGI [31] of 3060 nM and a GI50 [32] of 629 nM. The TGI [32] was 1930 nM, the GI50 [33] was 1600 nM and the TGI [33] was 3030 nM. For the same compound, the GI50 [34] was 1790 nM, the TGI [34] was 13200 nM and the GI50 [35] was 223 nM. It also gave a TGI [35] of 626 nM, a GI50 [36] of 1820 nM and a TGI [36] of 5170 nM. For the same compound, the GI50 [37] was 438 nM, the TGI [37] was 3120 nM and the GI50 [38] was 1450 nM. It also gave a TGI [38] of 3710 nM, a GI50 [39] of 770 nM and a TGI [39] of 6040 nM. For the same compound, the GI50 [40] was 2800 nM, the TGI [40] was 10400 nM and the GI50 [41] was 1820 nM. For the same compound, the TGI [41] was 3950 nM, the GI50 [42] was 1960 nM and the TGI [42] was 3870 nM. For the same compound, the GI50 [43] was 1740 nM, the TGI [43] was 3490 nM and the GI50 [44] was 1420 nM. The TGI [44] was 10300 nM, the GI50 [45] was 2110 nM and the TGI [45] was 8010 nM. It also gave a GI50 [46] of 2410 nM, a TGI [46] of 10300 nM and a GI50 [47] of 3200 nM. It also gave a TGI [47] of 10200 nM, a GI50 [48] of 781 nM and a TGI [48] of 3630 nM. It also gave a GI50 [49] of 1090 nM, a TGI [49] of 3620 nM and a GI50 [50] of 396 nM. For the same compound, the TGI [50] was > 100000 nM, the GI50 [51] was 469 nM and the TGI [51] was 4910 nM. For the same compound, the GI50 [52] was 1440 nM, the TGI [52] was 2760 nM and the GI50 [53] was 359 nM. It also gave a TGI [53] of 6970 nM, a GI50 [54] of 1710 nM and a TGI [54] of 4000 nM. For the same compound, the GI50 [55] was 1970 nM, the TGI [55] was 5080 nM and the GI50 [56] was 740 nM. It also gave a TGI [56] of 2060 nM, a GI50 [57] of 193 nM and a TGI [57] of 448 nM. For the same compound, the GI50 [58] was 2160 nM and the TGI [58] was 5150 nM.
